Measurements taken from US6914045B2, “Glycopeptide antibiotics” (Wyeth Holdings Corporation, priority 2001, dated 2005).
Converted amounts (≈) assume the structure as drawn.

Columns and labels:
Assay in all cases: in vitro antibacterial evaluation, MIC by broth dilution
Format in all cases: cell-based
Enterococcus sp. = conditions: broth dilution, 18 hours at 35° C.
Procedure, shortened: (§1)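 Following National Committee for Clinical Laboratory Standards recommendations (M7-A2), susceptibility was measured by dilution in Muller-Hinton II […]. Bacteria were seeded at 5×10^5 CFU/mL against compound concentrations from 64 down to 0.06 μg/mL.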

Escherichia coli = conditions: 18 hours at 35° C.
Procedure, shortened: as §1

Streptococcus sp. = conditions: broth dilution, 18 hours at 35° C.
Procedure, shortened: as §1

Staphylococcus sp. = conditions: broth dilution, 18 hours at 35° C.
Procedure, shortened: as §1

MIC Enterococcus avium (GC 4558) (Enterococcus sp.; Enterococcus avium (GC 4558)): 4 µg/mL (≈ 2.75 µM)
MIC Enterococcus faecalis (ATCC 29212) (Enterococcus sp.; Enterococcus faecalis (ATCC 29212)): 4 µg/mL (≈ 2.75 µM)
MIC Enterococcus faecalis (GC 2242) (Enterococcus sp.; Enterococcus faecalis (GC 2242)): 4 µg/mL (≈ 2.75 µM)
MIC Enterococcus faecalis (GC 2691) (Enterococcus sp.; Enterococcus faecalis (GC 2691)): 4 µg/mL (≈ 2.75 µM)
MIC Enterococcus faecalis (GC 3059) (Enterococcus sp.; Enterococcus faecalis (GC 3059)): 4 µg/mL (≈ 2.75 µM)
MIC Enterococcus faecalis (GC 4552) (Enterococcus sp.; Enterococcus faecalis (GC 4552)): 4 µg/mL (≈ 2.75 µM)
MIC Enterococcus faecalis (GC 4553) (Enterococcus sp.; Enterococcus faecalis (GC 4553)): 4 µg/mL (≈ 2.75 µM)
MIC Enterococcus faecalis (GC 4554) (Enterococcus sp.; Enterococcus faecalis (GC 4554)): 4 µg/mL (≈ 2.75 µM)
MIC Enterococcus faecalis (GC 6189) (Enterococcus sp.; Enterococcus faecalis (GC 6189)): 4 µg/mL (≈ 2.75 µM)
MIC Enterococcus faecium (GC 2243) (Enterococcus sp.; Enterococcus faecium (GC 2243)): 4 µg/mL (≈ 2.75 µM)
MIC Enterococcus faecium (GC 4556) (Enterococcus sp.; Enterococcus faecium (GC 4556)): 4 µg/mL (≈ 2.75 µM)
MIC Enterococcus faecium (GC 4557) (Enterococcus sp.; Enterococcus faecium (GC 4557)): 4 µg/mL (≈ 2.75 µM)
MIC Enterococcus faecalis (ATCC 29212) (Enterococcus sp.; strain ATCC 29212): 4 µg/mL (≈ 2.75 µM)
MIC Enterococcus faecalis (GC 2242) (Enterococcus sp.; strain GC 2242): 4 µg/mL (≈ 2.75 µM)
MIC Enterococcus faecium (GC 2243) (Enterococcus sp.; strain GC 2243): 4 µg/mL (≈ 2.75 µM)
MIC Enterococcus faecalis (GC 2691) (Enterococcus sp.; strain GC 2691): 4 µg/mL (≈ 2.75 µM)
MIC Enterococcus faecalis (GC 3059) (Enterococcus sp.; strain GC 3059): 4 µg/mL (≈ 2.75 µM)
MIC Enterococcus faecalis (GC 4552) (Enterococcus sp.; strain GC 4552): 4 µg/mL (≈ 2.75 µM)
MIC Enterococcus faecalis (GC 4553) (Enterococcus sp.; strain GC 4553): 4 µg/mL (≈ 2.75 µM)
MIC Enterococcus faecalis (GC 4554) (Enterococcus sp.; strain GC 4554): 4 µg/mL (≈ 2.75 µM)
MIC Enterococcus faecium (GC 4556) (Enterococcus sp.; strain GC 4556): 4 µg/mL (≈ 2.75 µM)
MIC Enterococcus faecium (GC 4557) (Enterococcus sp.; strain GC 4557): 4 µg/mL (≈ 2.75 µM)
MIC Enterococcus avium (GC 4558) (Enterococcus sp.; strain GC 4558): 4 µg/mL (≈ 2.75 µM)
MIC Enterococcus faecalis (GC 6189) (Enterococcus sp.; strain GC 6189): 4 µg/mL (≈ 2.75 µM)
MIC Escherichia coli (ATCC 25922) (Escherichia coli; strain ATCC 25922): 32 µg/mL (≈ 22 µM)
MIC Escherichia coli (GC 4559) (Escherichia coli; strain GC 4559): 32 µg/mL (≈ 22 µM)
MIC Escherichia coli (GC 4560) (Escherichia coli; strain GC 4560): 4 µg/mL (≈ 2.75 µM)
MIC Streptococcus agalactiae (GC 4564) (Streptococcus sp.; Streptococcus agalactiae (GC 4564)): 0.25 µg/mL (≈ 0.172 µM)
MIC Streptococcus pneumoniae (ATCC 6301) (Streptococcus sp.; Streptococcus pneumoniae (ATCC 6301)): 0.25 µg/mL (≈ 0.172 µM)
MIC Streptococcus pneumoniae (GC 1894) (Streptococcus sp.; Streptococcus pneumoniae (GC 1894)): <0.06 µg/mL
MIC Streptococcus pneumoniae (GC 4565) (Streptococcus sp.; Streptococcus pneumoniae (GC 4565)): 0.12 µg/mL (≈ 0.0824 µM)
MIC Streptococcus pyogenes (GC 4563) (Streptococcus sp.; Streptococcus pyogenes (GC 4563)): 0.5 µg/mL (≈ 0.344 µM)
MIC Streptococcus pneumoniae (ATCC 6301) (Streptococcus sp.; strain ATCC 6301): 0.25 µg/mL (≈ 0.172 µM)
MIC Streptococcus pneumoniae (GC 1894) (Streptococcus sp.; strain GC 1894): <0.06 µg/mL
MIC Streptococcus pyogenes (GC 4563) (Streptococcus sp.; strain GC 4563): 0.5 µg/mL (≈ 0.344 µM)
MIC Streptococcus agalactiae (GC 4564) (Streptococcus sp.; strain GC 4564): 0.25 µg/mL (≈ 0.172 µM)
MIC Streptococcus pneumoniae (GC 4565) (Streptococcus sp.; strain GC 4565): 0.12 µg/mL (≈ 0.0824 µM)
MIC Staphylococcus aureus (ATCC 29213) (Staphylococcus sp.): 2 µg/mL (≈ 1.37 µM)
MIC Staphylococcus aureus (GC 1131) (Staphylococcus sp.): 4 µg/mL (≈ 2.75 µM)
MIC Staphylococcus aureus (GC 3051) (Staphylococcus sp.): 2 µg/mL (≈ 1.37 µM)
MIC Staphylococcus aureus (GC 3053) (Staphylococcus sp.): 2 µg/mL (≈ 1.37 µM)
MIC Staphylococcus aureus (GC 4541) (Staphylococcus sp.): 2 µg/mL (≈ 1.37 µM)
MIC Staphylococcus aureus (GC 4542) (Staphylococcus sp.): 2 µg/mL (≈ 1.37 µM)
MIC Staphylococcus aureus (GC 4544) (Staphylococcus sp.): 4 µg/mL (≈ 2.75 µM)
MIC Staphylococcus aureus (GC 4545) (Staphylococcus sp.): 2 µg/mL (≈ 1.37 µM)
MIC Staphylococcus aureus (GC 1131) (Staphylococcus sp.; inoculum 5×10^5 CFU/mL, strain GC 1131): 4 µg/mL (≈ 2.75 µM)
MIC Staphylococcus aureus (ATCC 29213) (Staphylococcus sp.; strain ATCC 29213): 2 µg/mL (≈ 1.37 µM)
MIC Staphylococcus aureus (GC 3051) (Staphylococcus sp.; strain GC 3051): 2 µg/mL (≈ 1.37 µM)
MIC Staphylococcus aureus (GC 3053) (Staphylococcus sp.; strain GC 3053): 2 µg/mL (≈ 1.37 µM)
MIC Staphylococcus aureus (GC 4541) (Staphylococcus sp.; strain GC 4541): 2 µg/mL (≈ 1.37 µM)
MIC Staphylococcus aureus (GC 4542) (Staphylococcus sp.; strain GC 4542): 2 µg/mL (≈ 1.37 µM)
MIC Staphylococcus aureus-SMITH (GC 4543) (Staphylococcus sp.; strain GC 4543): 2 µg/mL (≈ 1.37 µM)
MIC Staphylococcus aureus (GC 4544) (Staphylococcus sp.; strain GC 4544): 4 µg/mL (≈ 2.75 µM)
MIC Staphylococcus aureus (GC 4545) (Staphylococcus sp.; strain GC 4545): 2 µg/mL (≈ 1.37 µM)
MIC Coagulase Negative Staphylococcus (GC 4547) (Staphylococcus sp.; strain GC 4547): 4 µg/mL (≈ 2.75 µM)
MIC Coagulase Negative Staphylococcus (GC 4548) (Staphylococcus sp.; strain GC 4548): 2 µg/mL (≈ 1.37 µM)
MIC Coagulase Negative Staphylococcus (GC 4549) (Staphylococcus sp.; strain GC 4549): 2 µg/mL (≈ 1.37 µM)
MIC Coagulase Negative Staphylococcus (GC 4551) (Staphylococcus sp.; strain GC 4551): 4 µg/mL (≈ 2.75 µM)
MIC Coagulase Negative Staphylococcus (GC 6257) (Staphylococcus sp.; strain GC 6257): 2 µg/mL (≈ 1.37 µM)
MIC Staphylococcus aureus-SMITH (GC 4543) (Staphylococcus sp.; strain SMITH GC 4543): 2 µg/mL (≈ 1.37 µM)
SMILES: CC(c1ccccc1)C1NC(=O)CNC(=O)C(CO)NC(=O)C(C(O)C2CNC(=N)N2C2OC(CO)C(O)C(O)C2O)NC(=O)C(C(O)C2CNC(=N)N2)NC(=O)C(Cc2ccc(OC3OC(CO)C(OC4OC(CO)C(O)C5OC(CC67CC8CC(CC(C8)C6)C7)OC45)C(O)C3O)cc2)NC1=O (stereo not shown) [Example 128]
MIC Staphylococcus haemolyticus (GC 4546) (Staphylococcus sp.; strain GC 4546): 2 µg/mL (≈ 1.37 µM)
